Assays:
pApU (RNA, polymer) A/U [1] = test: fluorimetric titration, Scatchard fit; details: Na+ (sodium cacodylate, I = 0.05 M); pH 7.0; compound 5×10^-7 M; n fixed at 0.1; per base
pApU (RNA, polymer) A/U [2] = test: UV thermal denaturation, 260 nm; details: Na+ (sodium cacodylate, I = 0.05 M), pH 7, per base
[3] = tested on: p(dAdT)2 (DNA, polymer) AT; test: UV thermal denaturation, 260 nm; details: Na+ (sodium cacodylate, I = 0.05 M), pH 7, polynucleotide 2×10^-5 M, per base
[4] = tested on: p(dGdC)2 (DNA, polymer) GC; test: fluorimetric titration, Scatchard fit; details: Na+ (sodium cacodylate, I = 0.05 M); pH 7.0; compound 5×10^-7 M; n fixed at 0.1; per base
[5] = tested on: p(dAdT)2 (DNA, polymer) AT; test: fluorimetric titration, Scatchard fit; details: Na+ (sodium cacodylate, I = 0.05 M); pH 7.0; compound 5×10^-7 M; n fixed at 0.1; per base
[6] = r [compound]/[polynucleotide] = 0.3

Compound | log Ks (pApU (RNA, polymer) A/U [1]) [M^-1] | ΔTm (pApU (RNA, polymer) A/U [2]; [6]) [°C] | ΔTm [3, 6] [°C] | log Ks [4] [M^-1] | log Ks [5] [M^-1] | ΔTm (pApU (RNA, polymer) A/U [2]; r [compound]/[polynucleotide] = 0.2, polynucleotide 2×10^-5 M) [°C] | ΔTm ([3]; r [compound]/[polynucleotide] = 0.2) [°C]
C[n+]1ccc(C#Cc2c(F)c(F)c(C#Cc3cc[n+](C)cc3)c(F)c2F)cc1 | 5.0 | 1.0 ± 0.5 | 7.0 ± 0.5 | 5.1 | 5.2 | – | –
C[n+]1ccc(C#Cc2c3ccccc3c(C#Cc3cc[n+](C)cc3)c3ccccc23)cc1 | 5.3 | – | – | 7.0 | 6.6 | 39.0 ± 0.5 | 37 ± 0.5
C[n+]1ccc(C#Cc2ccc(C#Cc3cc[n+](C)cc3)cc2)cc1 | 5.3 | 0 ± 0.5 | 2.0 ± 0.5 | 5.9 | 4.5 | – | –
